The record followed here is patent publication US4317824A, “Derivatives of quinoxaline-1,4-dioxides” (Abic, Ltd., priority 1976, dated 1982).

Values after ≈ are worked out from the molar mass of the structure shown.

What all share (type): cell-based
The subject of one assay is B. Cereus. Briefly: antimicrobial activity, minimal inhibitory concentration, B. Cereus. The settings on record: Bacillus cereus. Here is the method: (§1) The antimicrobial activity of some compounds according to the present invention was measured and the results are shown in the following Tables. The activity is indicated as the minimal inhibitory concentration in μg/ml.

The next assay deals with Staph. Aur. In words: antimicrobial activity, minimal inhibitory concentration, Staph. Aur. On the procedure:
as §1

The test system of a further assay is Crypt. Neof. In words: antimicrobial activity, minimal inhibitory concentration, Crypt. Neof. On the procedure: as §1
For the next assay, the system named is Trichophyt. Rubrum. In words: antimicrobial activity, minimal inhibitory concentration, Trichophyt. Rubrum. On the procedure:
as §1

The next assay has as its system Cand. Alb. In words: antimicrobial activity, minimal inhibitory concentration, Cand. Alb. Here is the method: as §1
Another assay concerns Proteus. In words: antimicrobial activity, minimal inhibitory concentration, Proteus. On the procedure:
as §1

The next assay relates to E. Coli. Briefly: antimicrobial activity, minimal inhibitory concentration, E. Coli. The following applies: Escherichia coli. On the procedure:
as §1

A further assay has as its system Mycoplasma gallisept. Briefly: antimicrobial activity, minimal inhibitory concentration, Mycoplasma gallisept. On the procedure:
as §1

The subject of a further assay is Pseud. Aur. In words: antimicrobial activity, minimal inhibitory concentration, Pseud. Aur. Here is the method:
as §1

The subject of another assay is Shig. Flex. Briefly: antimicrobial activity, minimal inhibitory concentration, Shig. Flex. Here is the method: as §1
For the next assay, the system named is B. Subtilis. Briefly: antimicrobial activity, minimal inhibitory concentration, B. Subtilis. The settings on record: Bacillus subtilis. Here is the method: as §1
The test system of another assay is Salm. Typh. Briefly: antimicrobial activity, minimal inhibitory concentration, Salm. Typh. The following applies: read-out: minimal inhibitory concentration. On the procedure: as §1

In the case of `CN1CCN(NC(=NO)c2c[n+]([O-])c3ccccc3[n+]2[O-])CC1`, the MIC is 50 µg/mL (≈ 157 µM) against B. Cereus; 50 µg/mL (≈ 157 µM) with Staph. Aur.; 10 to 25 µg/mL (≈ 31.4 to 78.5 µM) against Crypt. Neof.; 25 µg/mL (≈ 78.5 µM) in the assay with Trichophyt. Rubrum; 25 µg/mL (≈ 78.5 µM) against Cand. Alb.; 11 to 100 µg/mL (≈ 34.6 to 314 µM) in the assay with Proteus. Also, the MIC with E. Coli was 25 µg/mL (≈ 78.5 µM); against Mycoplasma gallisept, 2 µg/mL (≈ 6.28 µM); against Pseud. Aur., 11 to 100 µg/mL (≈ 34.6 to 314 µM).
Turning to `[O-][n+]1cc(C(Cl)=NO)[n+]([O-])c2ccccc21` [Example 6, 2(α-chloro)-carboxaldoxime-quinoxaline-1,4-dioxide], the MIC is 11 to 100 µg/mL (≈ 45.9 to 417 µM) with Shig. Flex.; 25 µg/mL (≈ 104 µM) against B. Cereus; 25 µg/mL (≈ 104 µM) in the assay on Staph. Aur.; 11 to 100 µg/mL (≈ 45.9 to 417 µM) against Trichophyt. Rubrum; 11 to 100 µg/mL (≈ 45.9 to 417 µM) with B. Subtilis; 25 µg/mL (≈ 104 µM) in the assay with E. Coli. For the same compound, in the assay on Mycoplasma gallisept, the MIC was 25 to 50 µg/mL (≈ 104 to 209 µM).
Turning to `Cc1ccc2c(c1)[n+]([O-])c(C(Cl)=NO)c[n+]2[O-]` [Example 7, 2-(α-chloro)-carboxaldoxime-7-methyl-quinoxaline-1,4-dioxide], the MIC against Shig. Flex. was 11 to 100 µg/mL (≈ 43.4 to 394 µM); against B. Cereus it was 25 µg/mL (≈ 98.6 µM); against Staph. Aur., 25 µg/mL (≈ 98.6 µM); with Crypt. Neof. it was 50 µg/mL (≈ 197 µM); against Trichophyt. Rubrum it was 25 µg/mL (≈ 98.6 µM); in the assay on Cand. Alb., 25 µg/mL (≈ 98.6 µM). The MIC in the assay with B. Subtilis is 11 to 100 µg/mL (≈ 43.4 to 394 µM); against E. Coli, 25 µg/mL (≈ 98.6 µM).
As for `[O-][n+]1cc(C(Cl)=NO)[n+]([O-])c2cc(Cl)ccc21` [Example 8, 2-(α-chloro)-carboxaldoxime-7-chloro-quinoxaline-1,4-dioxide], the MIC is 11 to 100 µg/mL (≈ 40.1 to 365 µM) in the assay with Shig. Flex.; 10 µg/mL (≈ 36.5 µM) against B. Cereus; 25 µg/mL (≈ 91.2 µM) in the assay with Staph. Aur.; 11 to 100 µg/mL (≈ 40.1 to 365 µM) in the assay with Trichophyt. Rubrum; 11 to 100 µg/mL (≈ 40.1 to 365 µM) against B. Subtilis; 25 µg/mL (≈ 91.2 µM) with E. Coli. This compound came in with an MIC in the assay on Mycoplasma gallisept of 10 to 25 µg/mL (≈ 36.5 to 91.2 µM).
For `Cc1cc2c(cc1C)[n+]([O-])c(C(Cl)=NO)c[n+]2[O-]` [Example 9, 2-(α-chloro)-carboxaldoxime-6.7-dimethyl-quinoxaline-1,4-dioxide], the MIC with Shig. Flex. is greater than 100 µg/mL; in the assay with B. Cereus it was 11 to 100 µg/mL (≈ 41.1 to 374 µM); with Staph. Aur., 11 to 100 µg/mL (≈ 41.1 to 374 µM); against Trichophyt. Rubrum, 11 to 100 µg/mL (≈ 41.1 to 374 µM); in the assay on B. Subtilis, greater than 100 µg/mL; against E. Coli, greater than 100 µg/mL. The MIC with Salm. Typh. was greater than 100 µg/mL.
`CCC(=O)ON=C(Cl)c1c[n+]([O-])c2ccc(Cl)cc2[n+]1[O-]` [Example 10, 2-(α-chloro-0-propionyl)-carboxaldoxime-7-chloro-quinoxaline-1,4-dioxide]: the MIC in the assay on Staph. Aur. is 11 to 100 µg/mL (≈ 33.3 to 303 µM); against Crypt. Neof., 1 µg/mL (≈ 3.03 µM); in the assay with Trichophyt. Rubrum it was 1 µg/mL (≈ 3.03 µM); against Cand. Alb. it was 1 µg/mL (≈ 3.03 µM); against B. Subtilis, 11 to 100 µg/mL (≈ 33.3 to 303 µM).
With `CC(=O)ON=C(Cl)c1c[n+]([O-])c2ccc(Cl)cc2[n+]1[O-]` [Example 11, 2-[α-chloro-(0-acetyl)-carboxaldoxime]-7-chloro-quinoxaline-1,4-dioxide], the MIC was 11 to 100 µg/mL (≈ 34.8 to 316 µM) in the assay with Shig. Flex.; 11 to 100 µg/mL (≈ 34.8 to 316 µM) in the assay with Staph. Aur.; 2 µg/mL (≈ 6.33 µM) against Crypt. Neof.; 2 µg/mL (≈ 6.33 µM) with Trichophyt. Rubrum; 1 µg/mL (≈ 3.16 µM) in the assay on Cand. Alb.; 11 to 100 µg/mL (≈ 34.8 to 316 µM) in the assay on B. Subtilis.
`CC(=O)ON=C(Cl)c1c[n+]([O-])c2ccc(C)cc2[n+]1[O-]` [Example 12, 2-[α-chloro-(0-acetyl)-7-methyl-quinoxaline]-1,4-dioxide]: the MIC in the assay on Shig. Flex. is 11 to 100 µg/mL (≈ 37.2 to 338 µM); against Crypt. Neof., 10 µg/mL (≈ 33.8 µM); in the assay on Trichophyt. Rubrum it was 1 µg/mL (≈ 3.38 µM); in the assay on Cand. Alb., 10 µg/mL (≈ 33.8 µM); in the assay on B. Subtilis, 11 to 100 µg/mL (≈ 37.2 to 338 µM).
Take `O=C(CCl)ON=C(Cl)c1c[n+]([O-])c2ccccc2[n+]1[O-]` [Example 13, 2-[α-chloro-(0-chloroacetylcarboxaldoxime)]-quinoxaline-1,4-dioxide]: the MIC in the assay with Shig. Flex. is 11 to 100 µg/mL (≈ 34.8 to 316 µM); with B. Cereus, 25 µg/mL (≈ 79.1 µM); in the assay with Staph. Aur. it was 20 µg/mL (≈ 63.3 µM); against Trichophyt. Rubrum it was 11 to 100 µg/mL (≈ 34.8 to 316 µM); in the assay with B. Subtilis it was 11 to 100 µg/mL (≈ 34.8 to 316 µM); with E. Coli it was 25 µg/mL (≈ 79.1 µM). Moreover, the MIC in the assay on Mycoplasma gallisept was determined as 25 µg/mL (≈ 79.1 µM); with Salm. Typh., 50 µg/mL (≈ 158 µM).
Turning to `O=C(ON=C(Cl)c1c[n+]([O-])c2ccccc2[n+]1[O-])c1ccc([N+](=O)[O-])cc1` [Example 14], the MIC in the assay with Shig. Flex. was 11 to 100 µg/mL (≈ 28.3 to 257 µM); with Trichophyt. Rubrum, 11 to 100 µg/mL (≈ 28.3 to 257 µM); against Mycoplasma gallisept, 50 µg/mL (≈ 129 µM); in the assay with Salm. Typh., 11 to 100 µg/mL (≈ 28.3 to 257 µM).
Turning to `CCOC(=NO)c1c[n+]([O-])c2ccccc2[n+]1[O-]` [Example 17 (ethoxy), 2-(α-ethoxy)-carboxaldoxime-quinoxaline-1,4 dioxide], the MIC with Shig. Flex. was 11 to 100 µg/mL (≈ 44.1 to 401 µM); with Staph. Aur., 10 µg/mL (≈ 40.1 µM); in the assay on B. Subtilis, 11 to 100 µg/mL (≈ 44.1 to 401 µM); in the assay on E. Coli, 11 to 100 µg/mL (≈ 44.1 to 401 µM); with Salm. Typh., 11 to 100 µg/mL (≈ 44.1 to 401 µM).
